Test results: patent US20250170090A1, “METHOD FOR PREVENTING OR TREATING DISEASE OR DISORDER ASSOCIATED WITH ANTINEOPLASTIC AGENT” (ONQUALITY PHARMACEUTICALS CHINA LTD., priority 2022, published 2025)
Where two headings read alike, the source gives them in different places.

System: HUVEC cells
Test: CCK-8 cell viability: alleviation of proliferative toxicity of anti-tumor agents on HUVEC cells (Tables 7-1, 7-2)
Type: cell-based
Conditions: for activation at 100 µM: Homo sapiens, 24 h, percentage increase in viable cells vs anti-tumor agent alone, read-out: Response rate % (average)
Method: The cultured HUVEC cells were digested the suspended, counted, and seed into a 96-well plate with 5,000-10,000 cells per well. The wells are divided into the following groups: blank control group, anti-tumor agent group, anti-tumor agent+NO-NSAID group, anti-tumor agent solvent group, NO-NSAID control group. Wherein each well of each group contained a basic medium, and the final liquid volume contained in each well was about 100 μL. The grouping situation was as follows: • 1) Blank control group: no solution was added except normally replacing the medium; • 2) Anti-tumor agent group: added the anti-tumor agent solution (the final concentration was shown in Table 7-1 and Table 7-2, the solvent of the anti-tumor agent solution was DMSO); • 3) Anti-tumor agent+NO-NSAID group: added the anti-tumor agent solution and the NO-NSAID solution (the final concentrations of anti-tumor agent and NO-NSAID were shown in Table 7-1 and Table 7-2, and according to the solubility of NO-NSAID, the solvent of NO-NSAID solution was selected as ethanol or sterile water, and minor volume differences in each group were adjusted by added the corresponding solvent); • 4) Anti-tumor agent solvent group: an equal volume of DMSO as contained in the corresponding anti-tumor agent solution in Group 2) was added; • 5) NO-NSAID control group: the same volume and type of solvent (for example, ethanol or sterile water) corresponding to the NO-NSAID contained in group 3) was added.
The anti-tumor agent solvent group was not involved in data processing and was only used as a reference for evaluating experimental system error. The NO-NSAID solvent control group was used for data correction to eliminate the influence of the solvent on the results.
After culturing for 24-48 hours, the Cell Counting Kit-8 (CCK-8) detection kit (C0037, Shanghai Beyotime Biotechnology Co., Ltd., Beyotime Biotechnology) was used to determine the cell viability. This allows for the calculation of the proliferative toxicity of anti-tumor agent on cell and the mitigating effect of NO-NSAID on proliferative toxicity. The results were statistically analyzed and plotted using GraphPad Prism 6.0 software and t test.

[1] = Infigratinib (15 μM), NO-NSAID 100 μM
[2] = Lapatinib (5 μM), NO-NSAID 100 μM
[3] = Lenvatinib (10 μM), NO-NSAID 100 μM
[4] = Olmutinib (10 μM), NO-NSAID 100 μM
[5] = Regorafenib (5 μM), NO-NSAID 100 μM
[6] = Selumetinib (5 μM), NO-NSAID 100 μM
[7] = Sorafenib (5 μM), NO-NSAID 100 μM
[8] = Sunitinib (5 μM), NO-NSAID 100 μM

`CC(C(=O)OCCCO[N+](=O)[O-])c1ccc(-c2ccccc2)c(F)c1` (stereo not drawn) [Compound A1] showed an activation at 100 µM (Dacomitinib (5 μM), NO-NSAID 100 μM) of 59%, an activation at 100 µM (Encorafenib (5 μM), NO-NSAID 100 μM) of 65% and an activation at 100 µM (Erdafitinib (10 μM), NO-NSAID 100 μM) of 51%. It also gave an activation at 100 µM (Everolimus (5 μM), NO-NSAID 100 μM) of 62%, an activation at 100 µM (Famitinib (5 μM), NO-NSAID 100 μM) of 70% and an activation at 100 µM (Fruquintinib (10 μM), NO-NSAID 100 μM) of 23%. It also gave an activation at 100 µM (Gefitinib (10 μM), NO-NSAID 100 μM) of 30%, an activation at 100 µM [1] of 80% and an activation at 100 µM [2] of 27%. It also gave an activation at 100 µM [3] of 28%, an activation at 100 µM [4] of 37% and an activation at 100 µM [5] of 64%. It also gave an activation at 100 µM [6] of 51%, an activation at 100 µM [7] of 51% and an activation at 100 µM [8] of 11%. For the same molecule, the activation at 100 µM (Vemurafenib (5 μM), NO-NSAID 100 μM) was 45%, the “NO-NSAID response rate % (average)” value (Infigratinib (15 μM), NO-NSAID 0.1 μM) was 23% and the “NO-NSAID response rate % (average)” value (Infigratinib (15 μM), NO-NSAID 1 μM) was 14%. For the same molecule, the “NO-NSAID response rate % (average)” value [1] was 80%, the “NO-NSAID response rate % (average)” value (Infigratinib (15 μM), NO-NSAID 500 μM) was 25% and the “NO-NSAID response rate % (average)” value (Lapatinib (5 μM), NO-NSAID 0.1 μM) was 27%. The “NO-NSAID response rate % (average)” value (Lapatinib (5 μM), NO-NSAID 1 μM) was 23%, the “NO-NSAID response rate % (average)” value [2] was 27% and the “NO-NSAID response rate % (average)” value (Lapatinib (5 μM), NO-NSAID 500 μM) was 24%. The “NO-NSAID response rate % (average)” value (Lenvatinib (10 μM), NO-NSAID 0.1 μM) was 21%, the “NO-NSAID response rate % (average)” value (Lenvatinib (10 μM), NO-NSAID 1 μM) was 13% and the “NO-NSAID response rate % (average)” value [3] was 28%. For the same molecule, the “NO-NSAID response rate % (average)” value (Lenvatinib (10 μM), NO-NSAID 500 μM) was 10%, the “NO-NSAID response rate % (average)” value (Olmutinib (10 μM), NO-NSAID 0.1 μM) was 25% and the “NO-NSAID response rate % (average)” value (Olmutinib (10 μM), NO-NSAID 1 μM) was 20%. The “NO-NSAID response rate % (average)” value [4] was 37%, the “NO-NSAID response rate % (average)” value (Olmutinib (10 μM), NO-NSAID 500 μM) was 31% and the “NO-NSAID response rate % (average)” value (Regorafenib (5 μM), NO-NSAID 0.1 μM) was 21%. The “NO-NSAID response rate % (average)” value (Regorafenib (5 μM), NO-NSAID 1 μM) was 27%, the “NO-NSAID response rate % (average)” value [5] was 64% and the “NO-NSAID response rate % (average)” value (Regorafenib (5 μM), NO-NSAID 500 μM) was 42%. The “NO-NSAID response rate % (average)” value (Selumetinib (5 μM), NO-NSAID 0.1 μM) was 36%, the “NO-NSAID response rate % (average)” value (Selumetinib (5 μM), NO-NSAID 1 μM) was 28% and the “NO-NSAID response rate % (average)” value [6] was 51%. The “NO-NSAID response rate % (average)” value (Selumetinib (5 μM), NO-NSAID 500 μM) was 25%, the “NO-NSAID response rate % (average)” value (Sorafenib (5 μM), NO-NSAID 0.1 μM) was 1% and the “NO-NSAID response rate % (average)” value (Sorafenib (5 μM), NO-NSAID 1 μM) was 14%. For the same molecule, the “NO-NSAID response rate % (average)” value [7] was 51%, the “NO-NSAID response rate % (average)” value (Sorafenib (5 μM), NO-NSAID 500 μM) was 8% and the “NO-NSAID response rate % (average)” value (Sunitinib (5 μM), NO-NSAID 0.1 μM) was 19%. For the same molecule, the “NO-NSAID response rate % (average)” value (Sunitinib (5 μM), NO-NSAID 1 μM) was 5%, the “NO-NSAID response rate % (average)” value [8] was 11% and the “NO-NSAID response rate % (average)” value (Sunitinib (5 μM), NO-NSAID 500 μM) was 29%.
